Patent publication US8110681B2, “Compounds for the treatment of spinal muscular atrophy and other uses” (The United States of America as represented by the …, priority 2006, dated 2012)
Read-outs that look alike come from different tables or passages of the source.

System: SMN2-linked luciferase-reporter gene construct
Experiment: SMN splice reporter assay (SMN2-linked luciferase reporter, Example 10)
Format: cell-based
Settings: for maximal fold induction: read-out: SMN Splice Reporter Assay (Example 10) Avg MaxFold Increase
How it was run: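 Cervical carcinoma cells stably carrying an SMN2–luciferase splice reporter, in which luciferase is in frame only when SMN2 exon 7 is included, were treated with compound. Luciferase activity was read and expressed as fold increase over untreated transformed cells.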

[1] = SMN2-linked luciferase reporter, average
[2] = maximum fold increase of reporter signal, average
[3] = SMN2-linked luciferase reporter, average maximum fold increase

| EC50 [1] [nM] | Compound | maximal fold induction [2] | maximal fold induction [3] |
| --- | --- | --- | --- |
| 58 | CCc1ccc(N2Cc3ccc(OC)cc3C2=O)cc1 [ALB-115085] | 1.47 |  |
| 61 | CCCCc1ccc2c(c1)C(=O)N(c1ccc(C(C)C(=O)O)cc1)C2 (stereo not shown) [ALB-115086] | 2.06 |  |
| 75 | CC(C(=O)O)c1ccc(N2Cc3ccc(I)cc3C2=O)cc1 (stereo not shown) [ALB-115216] | 1.87 |  |
|  | COCCc1ccc(N2Cc3ccc(OC)cc3C2=O)cc1 [ALB-115217] | 1.26 |  |
|  | C/C=C/c1ccc2c(c1)C(=O)N(c1ccc(C(C)C)cc1)C2 [ALB-115319] | 1.24 |  |
|  | COCc1ccc(N2Cc3ccccc3C2=O)cc1 [ALB-115323] | 1.1 |  |
| 74 | CC(C)COc1ccc2c(c1)C(=O)N(c1ccc(C(C)C(=O)O)cc1)C2 (stereo not shown) [ALB-115325] | 1.57 |  |
|  | CC(C(=O)O)c1ccc(N2Cc3ccc(OCc4ccccc4)cc3C2=O)cc1 (stereo not shown) [ALB-115326] | 1.24 |  |
| 76 | C=Cc1ccc2c(c1)C(=O)N(c1ccc(C(C)COC)cc1)C2 (stereo not shown) [ALB-115327] | 1.43 |  |
| 298 | CCc1ccc2c(c1)C(=O)N(c1ccc(C(C)COC)cc1)C2 (stereo not shown) [ALB-115328] | 1.5 |  |
| 399 | COc1ccc2c(c1)C(=O)N(c1ccc(C3CCCC3)cc1)C2 [ALB-115422] | 1.27 |  |
| 29 | O=C1c2ccccc2CN1c1ccc(C2CCCCC2)cc1 [ALB-115423] | 1.21 |  |
| 18 | CC(C)=Cc1ccc2c(c1)C(=O)N(c1ccc(C(C)C(=O)O)cc1)C2 (stereo not shown) [ALB-115425] | 1.95 |  |
| 13 | CC(C)Cc1ccc2c(c1)C(=O)N(c1ccc(C(C)C(=O)O)cc1)C2 (stereo not shown) [ALB-115426] | 1.96 |  |
|  | COCC(C)(C)c1ccc(N2Cc3ccccc3C2=O)cc1 [ALB-115427] | 1.31 |  |
| 556 | COc1ccc2c(c1)C(=O)N(c1ccc(C3CCCCC3)cc1)C2 [ALB-115496] | 1.39 |  |
| 83 | CCCc1ccc(N2Cc3ccccc3C2=O)cc1 [ALB-115499] | 1.27 |  |
| 115 | CC(C(=O)O)c1ccc(N2Cc3ccc(OCC4CC4)cc3C2=O)cc1 (stereo not shown) [ALB-115500] | 1.54 |  |
| 2320 | CC(C(=O)O)c1ccc(N2Cc3ccc(/C=C/C(F)(F)F)cc3C2=O)cc1 (stereo not shown) [ALB-115501] | 1.39 |  |
| 184 | CC(C)(C)c1ccc(N2Cc3ccc(Br)cc3C2=O)cc1 [ALB-115583] | 1.37 |  |
| 83 | CC(C(=O)O)c1ccc(N2Cc3ccc(OCC4CCC4)cc3C2=O)cc1 (stereo not shown) [ALB-115585] | 1.48 |  |
| 356 | CC(C(=O)O)c1ccc(N2Cc3ccc(CCC(F)(F)F)cc3C2=O)cc1 (stereo not shown) [ALB-115588] | 1.7 |  |
| 143 | CCCc1ccc(N2Cc3ccc(Br)cc3C2=O)cc1 [ALB-115589] | 1.39 |  |
|  | O=C1c2cc(Br)ccc2CN1c1ccc(C2CCCCC2)cc1 [ALB-115590] | 1.11 |  |
| 660 | COCC(C)(C)c1ccc(N2Cc3ccc(OC)cc3C2=O)cc1 [ALB-115706] | 1.26 |  |
|  | CCCc1ccc(N2Cc3ccc(OC)cc3C2=O)cc1 [ALB-115708] | 1.1 |  |

| EC50 [1] [nM] | Compound | maximal fold induction [2] | maximal fold induction [3] |
| --- | --- | --- | --- |
| 274 | Cc1ccc(N2Cc3ccccc3C2=O)cc1C [ALB-115711] | 1.33 |  |
| 61 | CCc1ccc2c(c1)C(=O)N(c1ccc(C(C)C)cc1)C2 [ALB-115713] | 1.37 |  |
| 53 | C=Cc1ccc2c(c1)C(=O)N(c1ccc(C(C)C)cc1)C2 [ALB-115714] | 1.37 |  |
|  | CC(C)c1ccc(N2Cc3ccc(N4CCCC4)cc3C2=O)cc1 [ALB-115715] | 1.06 |  |
| 29 | CC(C(=O)O)c1ccc(N2Cc3ccc(C4CC4)cc3C2=O)cc1 (stereo not shown) [ALB-115716] | 1.59 |  |
|  | Cc1ccc2c(c1)C(=O)N(c1ccc(C3CCCCC3)cc1)C2 [ALB-115717] | 1.06 |  |
| 22 | O=C1c2cc(Br)ccc2CN1c1ccc(C2CC2)cc1 [ALB-115718] | 1.32 |  |
| 144 | CC(C)c1ccc(N2Cc3cccc(Br)c3C2=O)cc1 [ALB-115801] | 1.45 |  |
| 61 | O=C1c2ccccc2CN1c1ccc(C2CC2)cc1 [ALB-115802] |  | 1.28 |
| 15 | COc1ccc2c(c1)C(=O)N(c1ccc(C3CC3)cc1)C2 [ALB-115803] |  | 1.26 |
| 99 | CC(C)c1ccc(N2Cc3ccc(N)cc3C2=O)cc1 [ALB-115805] | 1.42 |  |
| 155 | CC(C)=Cc1ccc2c(c1)C(=O)N(c1ccc(C(C)C)cc1)C2 [ALB-115807] |  | 1.3 |
| 145 | CC(C)c1ccc(N2Cc3cc(Br)ccc3C2=O)cc1 [ALB-115810] | 1.44 |  |
|  | CC(C)c1ccc(N2Cc3c(Br)cccc3C2=O)cc1 [ALB-115811] | 1.16 |  |
| 114 | Cc1cccc2c1CN(c1ccc(C(C)C)cc1)C2=O [ALB-115947] | 1.39 |  |
| 6 | Cc1ccc2c(c1)C(=O)N(c1ccc(C3CC3)cc1)C2 [ALB-115949] |  | 1.37 |
| 179 | COCC(C)c1ccc(N2Cc3ccc(CC(C)C)cc3C2=O)cc1 (stereo not shown) [ALB-115976] | 1.29 |  |
|  | COCc1ccc(N2Cc3ccc(OC)cc3C2=O)cc1 [ALB-116067] | 1.24 |  |
| 51 | Cc1ccc2c(c1)C(=O)N(c1ccc(C(C)(C)C)cc1)C2 [ALB-116068] | 1.35 |  |
| 16 | CCCc1ccc(N2Cc3ccc(C)cc3C2=O)cc1 [ALB-116071] | 1.35 |  |
| 68 | O=C1c2cc(Br)ccc2CN1c1ccc(C2CCCC2)cc1 [ALB-116072] |  | 1.36 |
|  | Cc1ccc2c(c1)C(=O)N(c1ccc(C3CCCC3)cc1)C2 [ALB-116073] |  | 1.08 |
| 188 | CCCOc1ccc2c(c1)C(=O)N(c1ccc(C(C)C)cc1)C2 [ALB-116075] | 1.26 |  |
| 72 | CC(C)Oc1ccc2c(c1)C(=O)N(c1ccc(C(C)C)cc1)C2 [ALB-116076] | 1.35 |  |
|  | CC(C)c1ccc(N2Cc3ccc(OC4CCCC4)cc3C2=O)cc1 [ALB-116077] | 1.18 |  |
| 33 | CCc1ccc(N2Cc3cc4c(cc3C2=O)OCCO4)cc1 [ALB-116240] |  | 1.62 |

| EC50 [1] [nM] | Compound | maximal fold induction [2] | maximal fold induction [3] |
| --- | --- | --- | --- |
| 219 | CC(C)Cc1ccc2c(c1)C(=O)N(c1ccc(C(C)C)cc1)C2 [ALB-116245] | 1.36 |  |
| 24 | Cc1ccc(N2Cc3cc4c(cc3C2=O)OCCO4)cc1 [ALB-116363] |  | 1.54 |
|  | CC(C)c1ccc(N2Cc3ccc(N4CCOCC4)cc3C2=O)cc1 [ALB-116368] | 1.08 |  |
|  | O=C1c2cc3c(cc2CN1c1ccc(C2CCCCC2)cc1)OCCO3 [ALB-116417] |  | 1.11 |
|  | CC(C)c1ccc(N2Cc3ccc(N4CCCCC4)cc3C2=O)cc1 [ALB-116418] | 1.15 |  |
| 121 | CCN(CC)c1ccc2c(c1)C(=O)N(c1ccc(C(C)C)cc1)C2 [ALB-116639] | 1.19 |  |
|  | CC(C)c1ccc(N2Cc3ccc(CN(C)C)cc3C2=O)cc1 [ALB-116934] | 1.05 |  |
| 68 | O=C1c2cc3c(cc2CN1c1ccc(C2CC2)cc1)OCCO3 [ALB-117043] |  | 1.57 |
| 70 | CCCC(C)c1ccc(N2Cc3ccccc3C2=O)cc1 (stereo not shown) [ALB-117045] | 1.25 |  |
| 269 | CC(=O)N(C)c1ccc2c(c1)C(=O)N(c1ccc(C(C)C)cc1)C2 [ALB-117047] |  | 1.39 |
| 180 | COc1ccc2c(c1)CN(c1ccc(C(C)C)cc1)C2=O [ALB-117453] | 1.28 |  |
| 401 | CC(C#N)c1ccc(N2Cc3cc4c(cc3C2=O)OCCO4)cc1 (stereo not shown) [ALB-117571] |  | 1.3 |
| 163 | CC(C)c1ccc(N2Cc3cccc(N)c3C2=O)cc1 [ALB-117574] | 1.73 |  |
| 319 | COc1cc2c(cc1OC)C(=O)N(c1ccc(C(C)C)cc1)C2 [ALB-117672] | 1.47 |  |
| 34 | CC(C)c1ccc(N2Cc3cc(N)ccc3C2=O)cc1 [ALB-117747] | 1.49 |  |
| 166 | COc1cccc2c1C(=O)N(c1ccc(C(C)C)cc1)C2 [ALB-117748] | 1.34 |  |
| 27 | CC(C)c1ccc(N2Cc3ccc4c(c3C2=O)OCO4)cc1 [ALB-117751] |  | 1.34 |
| 42 | CC(C)c1ccc(N2Cc3cc(N(C)C)ccc3C2=O)cc1 [ALB-117752] | 1.38 |  |
| 183 | CC(C)c1ccc(N2Cc3cccc(I)c3C2=O)cc1 [ALB-117753] | 1.6 |  |
|  | COc1cc2c(c(OC)c1Br)C(=O)N(c1ccc(C(C)C)cc1)C2 [ALB-117901] | 1.07 |  |
|  | CC(C)c1ccc(N2Cc3ccc(O)c(O)c3C2=O)cc1 [ALB-117903] |  | 1.07 |
| 4370 | CC(C)c1ccc(N2Cc3cccc(N(C)C)c3C2=O)cc1 [ALB-117904] | 1.46 |  |
| 414 | CNc1cccc2c1C(=O)N(c1ccc(C(C)C)cc1)C2 [ALB-117905] | 1.55 |  |
| 447 | COc1cc2c(c(OC)c1)C(=O)N(c1ccc(C(C)C)cc1)C2 [ALB-118034] | 1.3 |  |
|  | COc1cc2c(cc1O)CN(c1ccc(C(C)C)cc1)C2=O [ALB-118035] |  | 1.13 |
| 2670 | COc1ccc2c(c1OC)C(=O)N(c1ccc(C(C)C)cc1)C2 [ALB-118036] | 1.29 |  |
